Reference: ChEMBL document CHEMBL1932917, “4,5-dihydropyridazin-3-one derivatives as histamine H₃ receptor inverse agonists” (Bioorg Med Chem Lett, 2012)

Assays:
Histamine H3 receptor [1] = biological target: T1, Histamine H3 receptor (Homo sapiens, UniProt Q9Y5N1); experiment: Displacement of [3H]NAMH from human histamine H3 receptor expressed in CHO cells; format: cell-based
Histamine H3 receptor [2] = biological target: Histamine H3 receptor (Rattus norvegicus, UniProt Q9QYN8); experiment: Displacement of [3H]NAMH from rat histamine H3 receptor expressed in CHO cells; format: cell-based
Histamine H3 receptor [3] = biological target: T1, Histamine H3 receptor; experiment: Antagonist activity at human histamine H3 receptor by [35S]GTPgammaS binding assay; format: functional
[4] = Ratio of drug level in brain to plasma in rat at 10 mg/kg, ip after 6 hrs; format: ADME, organism-based; design: dose 10 mg/kg, route intraperitoneal
Rattus norvegicus [5] = experiment: Inhibition of RAMH-induced dipsogenia in po dosed rat; format: functional
[6] = Plasma protein binding in rat; format: ADME, cell-free; conditions: read-out: PPB (converted)
[7] = Plasma protein binding in dog; format: ADME, cell-free, Canis lupus familiaris; conditions: read-out: PPB (converted)
[8] = Plasma protein binding in human; format: ADME, cell-free; conditions: read-out: PPB (converted)
Rattus norvegicus [9] = experiment: Effect on sleep-awake cycle in ip dosed EEG/EMG rat model assessed as wake promotion after 4 hrs relative to control; format: functional, organism-based
Rattus norvegicus [10] = experiment: Effect on sleep-awake cycle in EEG/EMG rat model assessed as wake promotion at 1 mg/kg, ip after 4 hrs (reference value: 80 +/- 5 mins); format: functional; conditions: route intraperitoneal
Rattus norvegicus [11] = experiment: Effect on sleep-awake cycle in EEG/EMG rat model assessed as wake promotion at 3 mg/kg, ip after 4 hrs (reference value: 80 +/- 5 mins); format: functional; conditions: route intraperitoneal
Rattus norvegicus [12] = experiment: Effect on sleep-awake cycle in EEG/EMG rat model assessed as wake promotion at 10 mg/kg, ip after 4 hrs (reference value: 80 +/- 5 mins); format: functional; conditions: route intraperitoneal
Rattus norvegicus [13] = experiment: Effect on sleep-awake cycle in EEG/EMG rat model assessed as wake promotion time at 10 mg/kg, ip after 3 hrs relative to control; format: functional; conditions: route intraperitoneal
Rattus norvegicus [14] = experiment: Effect on sleep-awake cycle in EEG/EMG rat model assessed as wake promotion time at 10 mg/kg, ip after 4 hrs relative to control; format: functional; conditions: route intraperitoneal
Rattus norvegicus [15] = experiment: Effect on sleep-awake cycle in EEG/EMG rat model assessed as wake promotion at 10 mg/kg, ip after 5 hrs relative to control; format: functional; conditions: route intraperitoneal
Rattus norvegicus [16] = experiment: Effect on sleep-awake cycle in EEG/EMG rat model assessed as wake promotion at 10 mg/kg, ip after 17 hrs relative to control; format: functional; conditions: route intraperitoneal
[17] = biological target: Histamine H1 receptor (Homo sapiens) (UniProt P35367); experiment: Inhibition human histamine H1 receptor at 10 uM
[18] = biological target: Histamine H2 receptor (Homo sapiens) (UniProt P25021); experiment: Inhibition human histamine H2 receptor at 10 uM
[19] = biological target: Histamine H4 receptor (Homo sapiens) (UniProt Q9H3N8); experiment: Inhibition human histamine H4 receptor at 10 uM
Histamine H3 receptor [20] = biological target: T1, Histamine H3 receptor; experiment: Inverse agonist activity at human histamine H3 receptor by [35S]GTPgammaS binding assay; format: functional
[21] = Apparent permeability of the compound in human Caco2 cells; format: ADME, cell-based; conditions: Caco-2
[22] = Solubility of the compound in water at pH 2; format: physicochemical
[23] = Solubility of the compound in water at pH 7.4; format: physicochemical
[24] = Half life in mouse liver microsomes; format: ADME, Microsome
[25] = Half life in rat liver microsomes; format: ADME, Microsome
[26] = Half life in dog liver microsomes; format: ADME, Canis lupus familiaris, Microsome
[27] = Half life in monkey liver microsomes; format: ADME, Macaca mulatta, Microsome; conditions: rhesus monkey
[28] = Half life in human liver microsomes; format: ADME, Microsome
Cytochrome P450 1A2 = biological target: T2, Cytochrome P450 1A2 (Homo sapiens, UniProt P05177); experiment: Inhibition of CYP1A2; format: ADME
T2 sequence (P05177 whole entry): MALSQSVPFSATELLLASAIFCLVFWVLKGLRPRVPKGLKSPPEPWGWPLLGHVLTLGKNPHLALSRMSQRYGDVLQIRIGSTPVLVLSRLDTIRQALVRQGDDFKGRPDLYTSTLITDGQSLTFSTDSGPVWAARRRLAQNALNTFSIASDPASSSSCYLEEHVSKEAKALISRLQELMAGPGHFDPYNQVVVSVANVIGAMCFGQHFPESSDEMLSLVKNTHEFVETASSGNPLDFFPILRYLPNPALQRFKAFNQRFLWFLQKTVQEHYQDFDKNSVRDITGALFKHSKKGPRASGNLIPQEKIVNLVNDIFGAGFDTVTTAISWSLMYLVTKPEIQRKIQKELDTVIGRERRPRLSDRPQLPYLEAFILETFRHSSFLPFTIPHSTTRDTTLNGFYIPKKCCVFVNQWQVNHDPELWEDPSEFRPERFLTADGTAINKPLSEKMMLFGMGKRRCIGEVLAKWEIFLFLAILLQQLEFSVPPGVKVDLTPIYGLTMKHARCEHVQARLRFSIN

Cytochrome P450 2C9 = Cytochrome P450 2C9 (Homo sapiens, UniProt P11712); experiment: Inhibition of CYP2C9; format: ADME
Cytochrome P450 2C19 = Cytochrome P450 2C19 (Homo sapiens, UniProt P33261); experiment: Inhibition of CYP2C19; format: ADME
Cytochrome P450 2D6 = Cytochrome P450 2D6 (Homo sapiens, UniProt P10635); experiment: Inhibition of CYP2D6; format: ADME
Cytochrome P450 3A4 = Cytochrome P450 3A4 (Homo sapiens, UniProt P08684); experiment: Inhibition of CYP3A4; format: ADME
[29] = (§1) Half life in rat at 1 mg/kg, iv; format: ADME, organism-based; design: dose 1 mg/kg, route intravenous; conditions: in vivo
[30] = (§2) Volume of distribution in rat at 1 mg/kg, iv; format: ADME, organism-based; design: dose 1 mg/kg, route intravenous; conditions: in vivo
[31] = Clearance in rat at 1 mg/kg, iv; format: ADME, organism-based; design: dose 1 mg/kg, route intravenous; conditions: in vivo
[32] = (§3) AUC in rat at 5 mg/kg, po; format: ADME, organism-based, Plasma; design: dose 5 mg/kg, route oral; conditions: plasma
[33] = (§4) Cmax in rat at 5 mg/kg, po; format: ADME, organism-based; design: dose 5 mg/kg, route oral; conditions: in vivo
[34] = (§5) Oral bioavailability in rat at 5 mg/kg; format: ADME, organism-based; conditions: in vivo
[35] = Drug uptake in rat brain at 5 mg/kg, po after 6 hrs; format: ADME, organism-based; design: dose 5 mg/kg, route oral; conditions: read-out: Drug uptake
Rattus norvegicus [36] = experiment: as §1; format: ADME, organism-based; design: dose 1 mg/kg, route intravenous; conditions: in vivo
Rattus norvegicus [37] = experiment: as §2; format: ADME, organism-based; design: dose 1 mg/kg, route intravenous; conditions: in vivo
Rattus norvegicus [38] = experiment: as §3; format: ADME, organism-based, Plasma; design: dose 5 mg/kg, route oral; conditions: in vivo
Rattus norvegicus [39] = experiment: as §4; format: ADME, organism-based; design: dose 5 mg/kg, route oral; conditions: in vivo
Rattus norvegicus [40] = experiment: as §5; format: ADME, organism-based; conditions: in vivo

T1 sequence (Q9Y5N1 whole entry): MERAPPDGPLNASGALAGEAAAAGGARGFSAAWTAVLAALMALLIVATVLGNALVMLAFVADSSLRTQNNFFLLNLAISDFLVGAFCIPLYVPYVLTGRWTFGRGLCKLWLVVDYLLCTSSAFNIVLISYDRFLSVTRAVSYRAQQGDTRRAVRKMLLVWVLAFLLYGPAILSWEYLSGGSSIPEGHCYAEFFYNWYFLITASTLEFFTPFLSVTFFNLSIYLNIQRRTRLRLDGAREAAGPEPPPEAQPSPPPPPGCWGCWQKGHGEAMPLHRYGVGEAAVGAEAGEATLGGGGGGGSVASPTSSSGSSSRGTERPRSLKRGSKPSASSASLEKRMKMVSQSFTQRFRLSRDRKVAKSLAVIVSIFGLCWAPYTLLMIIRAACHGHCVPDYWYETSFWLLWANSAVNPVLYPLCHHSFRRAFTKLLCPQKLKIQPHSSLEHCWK
Chain of Histamine H3 receptor (Rattus norvegicus, UniProt Q9QYN8) (Q9QYN8 whole entry): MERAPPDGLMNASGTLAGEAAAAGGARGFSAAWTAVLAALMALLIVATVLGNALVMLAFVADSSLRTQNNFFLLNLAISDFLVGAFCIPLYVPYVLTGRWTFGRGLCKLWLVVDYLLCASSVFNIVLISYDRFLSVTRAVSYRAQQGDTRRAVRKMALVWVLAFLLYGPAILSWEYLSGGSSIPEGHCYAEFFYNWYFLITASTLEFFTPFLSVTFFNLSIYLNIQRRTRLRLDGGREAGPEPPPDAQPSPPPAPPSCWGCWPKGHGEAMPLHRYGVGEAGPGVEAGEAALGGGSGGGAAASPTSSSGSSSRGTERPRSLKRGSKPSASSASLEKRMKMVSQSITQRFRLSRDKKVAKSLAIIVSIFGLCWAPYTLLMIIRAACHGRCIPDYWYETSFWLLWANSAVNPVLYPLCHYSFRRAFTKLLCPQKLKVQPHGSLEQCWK
Chain of Cytochrome P450 2C19 (P33261 whole entry): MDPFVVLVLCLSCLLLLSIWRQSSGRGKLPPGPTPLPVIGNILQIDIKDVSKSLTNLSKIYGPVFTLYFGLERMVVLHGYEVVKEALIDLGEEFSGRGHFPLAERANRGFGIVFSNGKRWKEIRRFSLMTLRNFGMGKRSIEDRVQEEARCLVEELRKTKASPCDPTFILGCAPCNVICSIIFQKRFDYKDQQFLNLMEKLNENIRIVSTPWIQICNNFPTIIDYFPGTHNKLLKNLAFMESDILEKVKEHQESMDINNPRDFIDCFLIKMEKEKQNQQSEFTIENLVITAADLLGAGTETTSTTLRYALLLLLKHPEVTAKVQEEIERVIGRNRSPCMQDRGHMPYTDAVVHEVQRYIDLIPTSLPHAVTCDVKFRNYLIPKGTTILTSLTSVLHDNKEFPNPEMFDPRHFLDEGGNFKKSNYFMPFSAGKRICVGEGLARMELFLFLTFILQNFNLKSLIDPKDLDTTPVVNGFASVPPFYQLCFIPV
Chain of Cytochrome P450 2D6 (P10635 whole entry): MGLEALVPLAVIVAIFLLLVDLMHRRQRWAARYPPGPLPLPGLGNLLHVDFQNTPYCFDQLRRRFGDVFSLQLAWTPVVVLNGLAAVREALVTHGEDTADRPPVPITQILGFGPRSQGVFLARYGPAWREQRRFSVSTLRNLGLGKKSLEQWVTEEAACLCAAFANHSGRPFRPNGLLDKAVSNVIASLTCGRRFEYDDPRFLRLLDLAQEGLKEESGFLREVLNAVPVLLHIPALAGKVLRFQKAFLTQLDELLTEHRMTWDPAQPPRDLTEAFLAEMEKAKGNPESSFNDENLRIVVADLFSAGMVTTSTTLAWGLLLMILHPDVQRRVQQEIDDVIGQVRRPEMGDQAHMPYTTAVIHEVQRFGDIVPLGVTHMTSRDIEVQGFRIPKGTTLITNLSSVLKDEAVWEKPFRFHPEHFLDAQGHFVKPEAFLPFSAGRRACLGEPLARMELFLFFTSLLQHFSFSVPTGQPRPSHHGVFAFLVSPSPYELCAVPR
Chain of Cytochrome P450 3A4 (P08684 whole entry): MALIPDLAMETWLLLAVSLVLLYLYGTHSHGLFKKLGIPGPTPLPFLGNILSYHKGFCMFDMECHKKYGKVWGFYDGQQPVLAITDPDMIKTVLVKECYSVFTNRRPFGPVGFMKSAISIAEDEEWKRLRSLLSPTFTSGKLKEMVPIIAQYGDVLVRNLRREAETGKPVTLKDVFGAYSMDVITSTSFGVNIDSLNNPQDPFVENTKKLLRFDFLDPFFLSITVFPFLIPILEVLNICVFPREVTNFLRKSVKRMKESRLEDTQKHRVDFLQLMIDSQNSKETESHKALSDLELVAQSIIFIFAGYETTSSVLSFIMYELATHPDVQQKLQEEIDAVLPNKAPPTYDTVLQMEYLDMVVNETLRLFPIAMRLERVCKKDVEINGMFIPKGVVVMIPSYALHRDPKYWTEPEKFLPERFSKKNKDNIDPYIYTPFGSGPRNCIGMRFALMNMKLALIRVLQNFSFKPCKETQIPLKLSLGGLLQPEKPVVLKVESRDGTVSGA
Chain of Cytochrome P450 2C9 (P11712 whole entry): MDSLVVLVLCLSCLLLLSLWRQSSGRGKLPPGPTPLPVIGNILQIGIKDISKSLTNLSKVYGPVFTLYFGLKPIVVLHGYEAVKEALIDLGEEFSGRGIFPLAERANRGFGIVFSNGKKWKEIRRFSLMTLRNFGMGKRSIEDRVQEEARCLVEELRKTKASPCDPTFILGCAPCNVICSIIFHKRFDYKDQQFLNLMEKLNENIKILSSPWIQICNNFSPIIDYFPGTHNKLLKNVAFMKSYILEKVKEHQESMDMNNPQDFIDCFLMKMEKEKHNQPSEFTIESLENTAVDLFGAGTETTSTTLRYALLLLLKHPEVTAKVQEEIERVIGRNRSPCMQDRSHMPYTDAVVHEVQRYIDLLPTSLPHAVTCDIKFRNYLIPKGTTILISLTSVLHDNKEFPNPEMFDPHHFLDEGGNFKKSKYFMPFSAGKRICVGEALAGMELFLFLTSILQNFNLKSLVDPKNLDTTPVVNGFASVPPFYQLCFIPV
Chain of Histamine H4 receptor (Homo sapiens) (Q9H3N8 whole entry): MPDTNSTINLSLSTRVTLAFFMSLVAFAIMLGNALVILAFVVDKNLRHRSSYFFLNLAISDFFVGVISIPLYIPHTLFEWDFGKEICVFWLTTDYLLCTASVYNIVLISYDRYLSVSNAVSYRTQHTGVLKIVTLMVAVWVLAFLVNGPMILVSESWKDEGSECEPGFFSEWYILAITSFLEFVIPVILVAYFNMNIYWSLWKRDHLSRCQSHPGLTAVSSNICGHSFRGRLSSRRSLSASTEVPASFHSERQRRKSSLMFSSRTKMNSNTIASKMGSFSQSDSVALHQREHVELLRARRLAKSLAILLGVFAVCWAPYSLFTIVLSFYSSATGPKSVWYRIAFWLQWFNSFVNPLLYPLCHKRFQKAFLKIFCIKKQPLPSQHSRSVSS
Chain of Histamine H1 receptor (Homo sapiens) (P35367 whole entry): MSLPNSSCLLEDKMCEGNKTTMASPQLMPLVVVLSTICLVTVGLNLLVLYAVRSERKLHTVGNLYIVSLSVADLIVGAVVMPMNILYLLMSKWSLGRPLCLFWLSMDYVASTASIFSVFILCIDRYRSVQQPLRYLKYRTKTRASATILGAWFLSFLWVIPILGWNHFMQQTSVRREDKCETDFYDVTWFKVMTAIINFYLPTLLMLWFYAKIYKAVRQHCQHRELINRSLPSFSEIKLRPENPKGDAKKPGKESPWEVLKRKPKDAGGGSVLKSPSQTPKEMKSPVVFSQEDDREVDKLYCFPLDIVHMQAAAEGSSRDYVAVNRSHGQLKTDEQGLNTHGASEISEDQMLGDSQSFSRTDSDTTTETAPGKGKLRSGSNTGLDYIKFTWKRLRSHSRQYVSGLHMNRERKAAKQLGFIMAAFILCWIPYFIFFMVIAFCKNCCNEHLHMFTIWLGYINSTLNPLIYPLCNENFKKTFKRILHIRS
Chain of Histamine H2 receptor (Homo sapiens) (P25021 whole entry): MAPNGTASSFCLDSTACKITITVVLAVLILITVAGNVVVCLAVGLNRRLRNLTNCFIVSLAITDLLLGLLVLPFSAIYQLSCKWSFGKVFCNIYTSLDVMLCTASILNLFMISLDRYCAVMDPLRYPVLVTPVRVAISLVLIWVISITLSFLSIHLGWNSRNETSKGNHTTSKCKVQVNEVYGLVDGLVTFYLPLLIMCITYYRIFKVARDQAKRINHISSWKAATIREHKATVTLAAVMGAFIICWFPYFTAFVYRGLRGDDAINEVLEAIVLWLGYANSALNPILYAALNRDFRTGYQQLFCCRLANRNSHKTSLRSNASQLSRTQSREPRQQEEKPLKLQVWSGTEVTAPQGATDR

C[C@@H]1CCCN1CCCOc1ccc(C2=NN(C)C(=O)CC2)cc1
Ki (Histamine H3 receptor [1]): 5 nM | Ki (Histamine H3 receptor [2]): 16 nM

CC1CC(c2ccc(OCCCN3CCC[C@H]3C)cc2)=NNC1=O (mixture of isomers)
Ki (Histamine H3 receptor [1]): 1.9 nM | Ki (Histamine H3 receptor [2]): 4 nM

C[C@H]1CCCN1CCCOc1ccc(C2=NNC(=O)CC2)cc1
Ki (Histamine H3 receptor [1]): 37 nM | Ki (Histamine H3 receptor [2]): 114 nM

C[C@@H]1CCCN1CCCOc1ccc(C2=NNC(=O)CC2c2ccccn2)cc1 (mixture of isomers)
Ki (Histamine H3 receptor [1]): 9.9 nM | Ki (Histamine H3 receptor [2]): 21 nM

CC1CC(=O)NN=C1c1ccc(OCCCN2CCC[C@H]2C)cc1 (single isomer, unassigned; isomer 2) [listing 1 of 2 here]
Kb (Histamine H3 receptor [3]): 0.54 nM

C[C@@H]1CCCN1CCCOc1ccc(C2=NNC(=O)CC2(C)C)cc1
Ki (Histamine H3 receptor [1]): 20 nM | Ki (Histamine H3 receptor [2]): 59 nM

CC(C)N1N=C(c2ccc(OCCCN3CCC[C@H]3C)cc2)CCC1=O
Ki (Histamine H3 receptor [1]): 9 nM | Ki (Histamine H3 receptor [2]): 63 nM

O=C1CCC(c2ccc(OCCCN3CCCCC3)cc2)=NN1CC(F)(F)F
Ki (Histamine H3 receptor [1]): 38 nM | Ki (Histamine H3 receptor [2]): 62 nM

C[C@@H]1CCCN1CCCOc1ccc(C2=NNC(=O)C(C)(C)C2)cc1
Kp at 6 h ([4]; brain/plasma, read-out: BPR): 2.4 | ED50 (Rattus norvegicus [5]): 0.16 mg/kg | inhibition (Rattus norvegicus [5]): Dose-dependent effect | fraction unbound [6]: 0.72 | fraction unbound [7]: 0.84 | fraction unbound [8]: 0.74 | Activity (Rattus norvegicus [9]): Dose-dependent effect | Activity (Rattus norvegicus [10]): 119 min | Activity (Rattus norvegicus [11]): 127 min | Activity (Rattus norvegicus [12]): 201 min | Activity (Rattus norvegicus [13]): 90% | Activity (Rattus norvegicus [14]): 150% | Activity (Rattus norvegicus [15]): 130 min | Activity (Rattus norvegicus [16]): 203 min | inhibition [17]: < 30% | inhibition [18]: < 30% | inhibition [19]: < 30% | Kb (Histamine H3 receptor [3]): 0.18 nM | Ki (Histamine H3 receptor [1]): 4.3 nM | Ki (Histamine H3 receptor [2]): 13 nM | EC50 (Histamine H3 receptor [20]): 0.73 nM | Papp [21]: 14 ×10⁻⁶ cm/s | solubility [22]: > 2000 µg/mL | solubility [23]: > 2000 µg/mL | half-life [24]: > 40 min | half-life [25]: > 40 min | half-life [26]: > 40 min | half-life [27]: > 40 min | half-life [28]: > 40 min | IC50 (Cytochrome P450 1A2): > 30000 nM | IC50 (Cytochrome P450 2C9): > 30000 nM | IC50 (Cytochrome P450 2C19): > 30000 nM | IC50 (Cytochrome P450 2D6): > 30000 nM | IC50 (Cytochrome P450 3A4): > 30000 nM | half-life [29]: 114 min | Vd [30]: 4.7 L/kg | clearance [31]: 27 mL/min/kg | AUC [32]: 837 ng·h/mL | Cmax [33]: 189 ng/mL | bioavailability [34]: 38% | concentration at 6 h [35]: 900 nM

CC1CC(=O)NN=C1c1ccc(OCCCN2CCCCC2)cc1 (racemic)
Ki (Histamine H3 receptor [1]): 21 nM | Ki (Histamine H3 receptor [2]): 28 nM

CC1CC(=O)NN=C1c1ccc(OCCCN2CCC[C@H]2C)cc1 (single isomer, unassigned; isomer 2) [listing 2 of 2 here]
BPR ([4]; brain, 6 h): 1.9 | Ki (Histamine H3 receptor [1]): 4.7 nM | Ki (Histamine H3 receptor [2]): 20 nM | EC50 (Histamine H3 receptor [20]): 1.4 nM | IC50 (Cytochrome P450 1A2): > 30000 nM | IC50 (Cytochrome P450 2C9): > 30000 nM | IC50 (Cytochrome P450 2C19): > 30000 nM | IC50 (Cytochrome P450 2D6): > 30000 nM | IC50 (Cytochrome P450 3A4): > 30000 nM | t1/2 (Rattus norvegicus [36]): 90 min | Vd (Rattus norvegicus [37]): 3.4 L/kg | AUC (Rattus norvegicus [38]): 1327 ng·h/mL | Cmax (Rattus norvegicus [39]): 274 ng/mL | F (Rattus norvegicus [40]): 52%
